Measured values published in patent publication US10577406B2, “FKBP-L polypeptides and uses in angiogenesis-mediated disorders” (ALMAC DISCOVERY LIMITED, priority 2006, dated 2020).

B1: full length recombinant FKBP-L: recombinant full length his-tagged FKBP-L protein (SEQ ID NO: 1) expressed in BL21 (DE3) (protein, listed as Homo sapiens)
chain: MRGSHHHHHHGMASMTGGQQMGRDLYDDDDKDRWGSMETPPVNTIGEKDTSQPQQEWEKNLRENLDSVIQIRQQPRDPPTETLELEVSPDPASQILEHTQGAEKLVAELEGDSHKSHGSTSQMPEALQASDLWYCPDGSFVKKIVIRGHGLDKPKLGSCCRVLALGFPFGSGPPEGWTELTMGVGPWREETWGELIEKCLESMCQGEEAELQLPGHTGPPVGLTLASFTQGRDSWELETSEKEALAREERARGTELFRAGNPEGAARCYGRALRLLLTLPPPGPPERTVLHANLAACQLLLGQPQLAAQSCDRVLEREPGHLKALYRRGVAQAALGNLEKATADLKKVLAIDPKNRAAQEELGKVVIQGKNQDAGLAQGLRKMFG
modifications: His tag

What was measured:
PC3 (Prostate; CD44+ve) = assay: cell invasion in a modified Boyden chamber system, PC3; type: cell-based; settings: 24 h
Method: (§1) Twelve well plate polycarbonate inserts were divided into two groups with half remaining uncoated and half coated with 100 μg/cm^2 of Matrigel. The coated inserts were allowed to dry overnight at room temperature in a sterile tissue culture hood. The required cell line; HMEC-1, PC3 or MDA231 was trypsinised, re-suspended in fresh medium and the cell number calculated. 5×10^5 cells, in a total volume of 500 μl, were added to the insert (top chamber) and 1.5 ml of complete medium added to the bottom chamber of the plate as a stimulus for invasion. FKBP-L 24mer was added to both the upper and lower chamber of the plate at the required concentration in the experimental wells. The plate was incubated for 24 h (PC3 or MDA231) or 48 h (HMEC-1).
(§2) The inserts were carefully removed from their 12 well plate and inserts without Matrigel coating were placed directly into Carnoys fixative. […]
(§3) The polycarbonate inserts were cut from the holders and placed on to mounting medium on a microscope slide. […] The slides were stored at 4° C. until analysed.
(§4) Ten images from each insert were captured and the number of fluorescent cells per image was analysed by Lucia Imaging software. The ratio of cells visible on non-coated inserts compared to cells visible on Matrigel coated inserts was expressed as % invasion. […]

HMEC-1 cells [1] = assay: MTT assay of cell viability/proliferation; settings: 24mer 10^−5-10^−10M, 1-57mer 10^−9M and 10^−10M; 24 hours and 48 hours
Method: (§7) An MTT assay was used to measure cell viability/proliferation.
(§8) An MTT assay was used to measure cell viability and/or proliferation. Briefly, HMEC-1 cells were seeded (2.5×10^3) in 96 well plates and allowed to attach for 5 h. The cells were treated with FKBP-L 24mer (SEQ ID NO: 10) (10^−5-10^−10M), 1-57mer (SEQ ID NO: 6) (10^−9M and 10^−10M) or medium (control).
(§9) Post incubation the cells were exposed to a 5 mgml^−1 solution of 3-(-4,5-dimethylthiazol-2-yl) 2,5 diphenyl tetrazolium (MTT) for 4 h. The cells were aspirated and 200 μl of DMSO added to reduce the salt and induce a colour change.

[2] = system: MDA-231 (breast; CD44+ve); assay: cell invasion in a modified Boyden chamber system, MDA-231; type: cell-based; settings: 24 h
Method: as §1, §2, §3, §4

[3] = system: mouse endothelial cells, 2H-11; assay: wound scrape assay in a mouse endothelial cell line; type: cell-based; settings: 10^−14-10^−7 M; 7 hours
Method: This experiment evaluated the ability of the FKBP-L 24mer to inhibit endothelial cell migration over a dose ranges spanning from 10^−14 M to 10^−7 M. The in vitro migration assay used in these studies is a modified version of the method described by Ashton et al (1999) see supra. In this assay mouse endothelial cells, 2H-11, were obtained from the American Tissue Culture Collection and were grown in D-MEM containing 10% FCS. They were plated into individual chambers on a glass slide and grown to 90% confluence overnight. The medium was removed and the monolayer wounded. The monolayer was re-supplemented with fresh medium and the required volume of the FKBPL 24mer peptide was added to achieve a dose range from 10^−14-10^−7 M. The monolayers were incubated for 7 hours and then fixed in 4% PBS buffered paraformaldehyde.
The extent of “wound” closure was blindly assessed microscopically by an independent investigator and quantified using a calibrated eyepiece graticule (1 mm/100 μm graduation) at 20× magnification (Olympus BX 50). The extent of closure in the FKBP-L 24mer treated slides was compared to time matched sham treated controls and the % inhibition of wound closure compared to time matched controls calculated.

[4] = system: HT29 (Colorectal tumor cell line; CD44 +ve); assay: tumor cell migration, wound closure assay, HT29; type: cell-based; settings: 24 hours
Method: In these experiments, the effect of recombinant FKBP-L on tumor cell migration was assessed. The in vitro migration assay used in these studies is a modified version of the method described by Ashton et al (1999) see supra. PC3, MDA231, and HT29 tumor cells were plated into individual chambers on a glass slide and grown to 90% confluence overnight. The medium was removed and the monolayers wounded. The monolayer was re-supplemented with fresh medium and the required volume of His-tagged recombinant FKBP-L protein (SEQ ID NO: 1) was added to give the final concentrations shown. The monolayers were incubated for 24 hours and then fixed in 4% PBS buffered paraformaldehyde.
The extent of “wound” closure was blindly assessed microscopically by an independent investigator and quantified using a calibrated eyepiece graticule (1 mm/100 μm graduation) at 20× magnification (Olympus BX 50). The extent of closure in the FKBP-L treated slides was compared to time matched sham-treated controls and the percent inhibition of wound closure compared to time matched controls calculated. […]
The extent of “wound” closure was blindly assessed microscopically by an independent investigator and quantified using a calibrated eyepiece graticule (1 mm/100 μm graduation) at 20× magnification (Olympus BX 50). […]

HMEC-1 cells [5] = system: HMEC-1 cells
Method: as §7, §8, §9

[6] = system: DU145 (prostate tumor cell line; CD44 −ve); assay: tumor cell migration, wound closure assay, DU145; type: cell-based, human; settings: 24 h
Method: (§5) The in vitro migration assay used in these studies is a modified version of the method described by Ashton et al. (1999) see supra. PC3 (prostate tumor cell line; CD44 positive; CD44 +ve), MDA231 (breast tumor cell line; CD44 +ve), HT29 (Colorectal tumor cell line; CD44 +ve), MCF-7 (breast tumor cell line; CD44 negative; CD44 −ve) and DU145 (prostate tumor cell line; CD44 −ve) were plated into individual chambers on a glass slide and grown to 90% confluence overnight. The medium was removed and the monolayers wounded. […] The monolayers were incubated for 24 h and then fixed in 4% PBS buffered paraformaldehyde.
(§6) The extent of “wound” closure was blindly assessed microscopically by an independent investigator and quantified using a calibrated eyepiece graticule (1 mm/100 μm graduation) at 20× magnification (Olympus BX 50). The extent of closure in the FKBP-L treated slides was compared to time matched sham treated controls and the % inhibition of wound closure compared to time matched controls calculated.

[7] = system: MCF-7 (breast tumor cell line; CD44 −ve); assay: tumor cell migration, wound closure assay, MCF-7; type: cell-based; settings: MCF-7 (CD44 −ve); 24 h
Method: as §5, §6

Molecule	effect on cell invasion through Matrigel (PC3 (Prostate; CD44+ve))	effect on proliferation of HMEC-1 cells compared to time-matched controls (HMEC-1 cells [1])	effect on cell invasion through Matrigel [2]	effect on wound closure in mouse endothelial cells [3]	effect on tumor cell migration [4]	effect on proliferation of HMEC-1 cells compared to time matched controls (HMEC-1 cells [5])	effect on tumor cell migration [6]	effect on tumor cell migration [7]
H-QIRQQPRDPPTETLELEVSPDPAS-OH [FKBP-L 24mer]	potent inhibitor	neither of the peptides had any significant effect	potent inhibitor	inhibited wound closure				
B1					inhibits tumor cell migration in a dose-dependent manner	no significant effect	not in CD44 −ve tumor cell lines	not in CD44 −ve tumor cell lines
